Target: T1, PolH (Streptomyces aureochromogenes, UniProt J7G018)
T1 construct: pET28a, N-terminal His6 tag, E. coli; anaerobically purified, reconstituted [4Fe-4S]; motif C225XXXC229XXC232
Experiment: HPLC time course of OAP and […]'-deoxyadenosine
Format: biochemical
Settings: 3'-EUMP, sodium dithionite, anaerobic; SAM consumed as co-substrate

T1 sequence (J7G018 entry or part of it): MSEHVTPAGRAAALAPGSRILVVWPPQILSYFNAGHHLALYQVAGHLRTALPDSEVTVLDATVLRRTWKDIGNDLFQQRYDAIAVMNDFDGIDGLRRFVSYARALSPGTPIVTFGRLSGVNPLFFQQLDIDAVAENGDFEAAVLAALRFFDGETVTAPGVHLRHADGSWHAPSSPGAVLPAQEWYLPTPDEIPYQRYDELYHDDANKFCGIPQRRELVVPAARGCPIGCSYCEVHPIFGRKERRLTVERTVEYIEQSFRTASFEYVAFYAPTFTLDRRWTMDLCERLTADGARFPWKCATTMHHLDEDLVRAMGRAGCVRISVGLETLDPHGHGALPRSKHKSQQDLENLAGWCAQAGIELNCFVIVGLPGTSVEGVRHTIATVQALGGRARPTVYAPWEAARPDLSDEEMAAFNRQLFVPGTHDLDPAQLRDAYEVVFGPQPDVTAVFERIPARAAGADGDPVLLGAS

`C[S+](CC[C@H](N)C(=O)O)C[C@H]1O[C@@H](n2cnc3c(N)ncnc32)[C@H](O)[C@@H]1O` (stereo partly shown) [SAM] was tested, and the “HPLC time course of OAP and 5'-deoxyadenosine” value was “indicating that SAM was being used as a co-substrate”.

From paper PMC5365060, “Construction of an octosyl acid backbone catalyzed by a radical S-adenosylmethionine enzyme and a phosphatase in the biosynthesis of high-carbon sugar nucleoside antibiotics” (Chemical Science, 2016)
